# Results taken from patent publication US12063929B2, “3′-alkynyl abscisic acid derivatives as ABA antagonists” (University of Saskatchewan, priority 2018, dated 2024).
# What was measured:
# Assay type in all cases: in vivo
# [1] = system: Canola seed (Nutrien PV200); experiment: Canola seed germination assay; conditions: 10 μM ABA, 8 day study (FIG. 10)
# Experimental: For each treatment 6 replicates of 40 seeds were plated into petri dishes lined with two filter papers and 10 mL of test solution. The covered dishes were stored at room temperature in the dark. Germinated seeds were counted every 2 days for 8 days. The following dosages were used when studying the effect of exemplary compounds on canola germination: control 1% DMSO. 10 μM ABA, 100 μM 1019, and 100 μM 1019 plus 10 μM ABA.
# [2] = system: Hard Red Spring wheat; experiment: Hard Red Spring wheat seedling growth (root and shoot length); conditions: 10 μM ABA, 72 h
# Experimental: For each treatment 3 replicates of 10 seeds were plated into petri dishes lined with two filter papers and 10 mL of test solution. The covered dishes were stored at room temperature in the dark. At 72 hours, germinated seeds were scored for root length and shoot length. The following dosages were used when studying the effect of the exemplary ABA analogues of the application on wheat shoot and root growth: control 1% DMSO. 10 μM ABA, 10 μM 1019, 100 μM exemplary compound 1019, 10 μM exemplary compound 1019 plus 10 μM ABA […] and 100 μM exemplary compound 1019 plus 10 μM ABA […].
# [3] = system: Lentil (CDC Maxim); experiment: Lentil (CDC Maxim) seed germination assay; conditions: for antagonist activity, lentil germination: 10 uM versus 10 uM ABA; for antagonist activity, lentil germination / agonist activity, lentil germination: data not shown; for agonist activity, lentil germination: 10 uM; for lentil seed germination, antagonism of ABA: 10 μM ABA plus 10 μM compound (FIG. 6C)
# Experimental: 40 seeds were counted for each 100×15 mm petri dishes. Each petri dish contained two filter papers and 10 mL of test solutions. Then, they were wrapped with aluminium foil to cut off light. Wrapped plates were kept on lab bench at room temperature. Germinated seeds were counted everyday until one treatment reaches 100% germination (two days). Only light exposure was during plate counting. […]
# All seeds from this experiment have been rinsed first with tap water and then with dH2O, frozen in liquid nitrogen and stored at −80° C. freezer.
# [4] = 100 μM compound, in the presence of 10 μM ABA (FIG. 5)
# [5] = 100 μM compound alone, compared to control (FIG. 6A)
# [6] = 100 μM compound plus 10 μM ABA (FIG. 6B)
compound,measurement,setting,value
"CC1=CC(=O)CC(C)(C)[C@@]1(O)/C=C/C(C)=C\C(=O)O [ABA, (2Z,4E)-5-[(1S)-1-hydroxy-2,6,6-trimethyl-4-oxocyclohex-2-en-1-yl]-3-methylpenta-2,4-dienoic acid, reference compound]",canola seed germination,[1],inhibited seed germination
same,shoot growth,[2],inhibited
same,lentil seed germination,"[3]; 10 uM ABA alone, day one (FIG. 3A)",completely inhibited
"CC1=C(/C=C/c2ccccc2)C(=O)CC(C)(C)[C@@]1(O)/C=C/C(C)=C\C(=O)O [Compound 1090, (2Z,4E)-5-((S)-1-hydroxy-2,6,6-trimethyl-4-oxo-3-((E)-styryl)cyclohex-2-en-1-yl)-3-methylpenta-2,4-dienoic acid]",lentil seed germination,[3]; [4],promoted
"CCC(O)(C#CC1=C(C)[C@](O)(/C=C/C(C)=C\C(=O)O)C(C)(C)CC1=O)CC [Compound 1059, (2Z,4E)-5-((S)-3-(3-ethyl-3-hydroxypent-1-yn-1-yl)-1-hydroxy-2,6,6-trimethyl-4-oxocyclohex-2-en-1-yl)-3-methylpenta-2,4-dienoic acid]","antagonist activity, lentil germination",[3],weak antagonist activity
same,"agonist activity, lentil germination",[3],no agonist activity
"CC1=C(C#Cc2ccc(O)cc2)C(=O)CC(C)(C)[C@@]1(O)/C=C/C(C)=C\C(=O)O [Compound 1091, (2Z,4E)-5-((S)-1-hydroxy-3-((4-hydroxyphenyl)ethynyl)-2,6,6-trimethyl-4-oxocyclohex-2-en-1-yl)-3-methylpenta-2,4-dienoic acid]","lentil seed germination, antagonism of ABA",[3],effective antagonists
same,lentil seed germination,[3]; [5],no effect
same,lentil seed germination,[3]; [6],overcame the effect
"CC1=C(c2ccccc2)C(=O)CC(C)(C)[C@@]1(O)/C=C/C(C)=C\C(=O)O [Compound 1080, (2Z,4E)-5-((S)-3-hydroxy-2,4,4-trimethyl-6-oxo-3,4,5,6-tetrahydro-′[1,1′-biphenyl]-3-yl)-3-methylpenta-2,4-dienoic acid]",lentil seed germination,[3]; [4],weakly promoted
"CC1=C(C#CC2CCCCC2)C(=O)CC(C)(C)[C@@]1(O)/C=C/C(C)=C\C(=O)O [Compound 1100, (2Z,4E)-5-((S)-3-(cyclohexylethynyl)-1-hydroxy-2,6,6-trimethyl-4-oxocyclohex-2-en-1-yl)-3-methylpenta-2,4-dienoic acid]","lentil seed germination, antagonism of ABA",[3],effective antagonists
same,lentil seed germination,[3]; [5],no effect
same,lentil seed germination,[3]; [6],overcame the effect
"CCc1ccc(C#CC2=C(C)[C@](O)(/C=C/C(C)=C\C(=O)O)C(C)(C)CC2=O)cc1 [Compound 1025, (2Z,4E)-5-((S)-3-((4-Ethylphenyl)ethynyl)-1-hydroxy-2,6,6-trimethyl-4-oxocyclohex-2-en-1-yl)-3-methylpenta-2,4-dienoic acid]",lentil seed germination,[3]; compound at 1 uM,most highly promoted
"CC1=C(C#C/C(C)=C\CO)C(=O)CC(C)(C)[C@@]1(O)/C=C/C(C)=C\C(=O)O [Compound 1063, (2Z,4E)-5-((S)-1-hydroxy-3-((Z)-5-hydroxy-3-methylpent-3-en-1-yn-1-yl)-2,6,6-trimethyl-4-oxocyclohex-2-en-1-yl)-3-methylpenta-2,4-dienoic acid]","antagonist activity, lentil germination",[3],weak antagonist activity
same,"agonist activity, lentil germination",[3],no agonist activity
